A short description of this series: solvent given as SMILES.

Molecules are shown by their SMILES.

Regarding `CC(=O)OCCOCCN1C(=O)c2cc(NCCOCCO)c3c4c(cc(NCCOCCO)c(c24)C1=O)C(=O)N(CCOCCOC(C)=O)C3=O`, the absorption maximum reads like this: (in CO) 604 nm; (in ClC(Cl)Cl) 610 nm; (in O) 622 nm.

For the setting “in O”, `CCN(CC)c1ccc2c(c1)C(C)(C)C(=O)C=C2` yielded an absorption maximum of 429 nm.

Take `O=c1oc2ccccc2cc1-c1cc2ccccc2o1`: the absorption maximum runs as follows: (in CC#N) 366 nm; (in CCOC(C)=O) 368 nm; (in CS(C)=O) 371 nm; (in Cc1ccccc1) 373 nm; (in O) 365 nm.

`COc1cc(/C=C/c2nc3ccccc3o2)c(OC)cc1/C=C/c1nc(C)nc(/C=C/c2cc(OC)c(/C=C/c3nc4ccccc4o3)cc2OC)n1`: the absorption maximum by setting is: (in C1CCOC1) 431 nm; (in CC#N) 431 nm; (in ClC(Cl)Cl) 436 nm; (in ClCCl) 431 nm.

For the compound `N#Cc1c(N2CCCCC2)cc(-c2ccc3ccccc3c2)c2c1Cc1ccccc1-2`, where the note is “in C1CCOC1”, the absorption maximum is 362 nm.

Turning to `CN(C)c1ccc(C(=O)Nc2cccc(Br)c2)cc1`, the absorption maximum came out at 310 nm (in C1CCCCC1), 317 nm (in C1CCOC1), 318 nm (in CC#N) and 312 nm (in CCOCC).

In turn, `CN1C(=CC2=C([S-])C(=CC3=[N+](C)c4ccccc4C3(C)C)C2=O)C(C)(C)c2ccccc21` came in with an absorption maximum (in ClC(Cl)Cl) of 650 nm.

`O=c1c2ccccc2c2nc3cc4c(C#C[Si](C5CCCCC5)(C5CCCCC5)C5CCCCC5)c5cc6nc7c8ccccc8c(=O)c8ccccc8c7nc6cc5c(C#C[Si](C5CCCCC5)(C5CCCCC5)C5CCCCC5)c4cc3nc2c2ccccc12` registered an absorption maximum (in ClCCl) of 731 nm.

For `CC(C)(C)c1ccc2c3ccccc3c3cncnc3c2c1`, the absorption maximum (in ClCCl) stood at 348 nm.

Regarding `Cc1cccc(Nc2ccccc2C(=O)O)c1C`, the absorption maximum reads like this: (in CC#N) 351 nm; (in CCOC(C)=O) 351 nm; (in CO) 345 nm; (in ClC(Cl)Cl) 357 nm.

Compound `FC(F)(F)c1ccc(/C=C/c2nc3c(ccc4ccccc43)s2)cc1` returned an absorption maximum (in C1CCCCC1) of 375 nm and an absorption maximum (in CC#N) of 369 nm.

As for `COC(=O)c1ccc(/C=C2\C=C(c3ccc(C#N)cc3)OC2=O)cc1`, the absorption maximum (in C1COCCO1) is 404 nm.

As for `c1ccc(B2Nc3cc4c(cc3-c3occc32)NB(c2ccccc2)c2ccoc2-4)cc1`, where the note is “in ClCCl”, the absorption maximum is 388 nm.

`CC[Si](CC)(CC)c1cc2ccc3cccc4ccc(c1C(=O)NC(C)(C)C)c2c34`: the absorption maximum (in ClC(Cl)Cl) turned out to be 381 nm.

The compound `c1ccc2c(c1)Cc1ccccc1N2c1c2ccccc2cc2ccccc12` showed an absorption maximum (in Cc1ccccc1) of 416 nm.

As to `COc1ccc(/C=C/c2cc(/C=C/c3ccc(OC)cc3)nc(/C=C/c3ccc(N(c4ccccc4)c4ccccc4)cc3)n2)cc1`, where the note is “in ClCCl”, the absorption maximum was found to be 376 nm.

`C1=Cc2ccc3ccccc3c2N(c2ccccc2)B1c1ccccc1` returned an absorption maximum (in C1CCCCC1) of 364 nm.

In turn, `CCCCCCCCOc1ccc(C#Cc2ccc3oc4ccccc4c3c2)c(OCCCCCCCC)c1` came in with an absorption maximum (in ClCCl) of 314 nm.

As to `CC[N+]1(CC)CN2C(=N1)C(C(=O)O)=Cc1c2ccc2ccccc12`, the absorption maximum (in O) is listed as 406 nm.

For `O=C1c2cccc3c(-n4c5ccccc5c5ccccc54)ccc(c23)C(=O)N1c1ccccc1`, the absorption maximum reads like this: (in C1CCOC1) 408 nm; (in CCCCCC) 403 nm; (in ClC(Cl)Cl) 405 nm; (in ClCCl) 419 nm.

As for `CCCCCCN(CCCCCC)c1ccc(C#Cc2ccc(C#N)cc2)cc1`, the absorption maximum is, setting by setting: (in CC#N) 379 nm; (in CO) 378 nm; (in ClCCl) 385 nm.

As to `COc1ccc2cc(-c3ccc(S(C)(=O)=O)cc3)oc(=O)c2c1`, the absorption maximum reads like this: (in CCO) 331 nm; (in CCOC(C)=O) 331 nm; (in CN(C)C=O) 333 nm; (in CO) 330 nm; (in ClC(Cl)Cl) 334 nm.

Where the note is “in ClCCl”, `CN(C)c1ccc(/C=C/c2cnc(C#Cc3ccc(C#N)cc3)o2)cc1` registered an absorption maximum of 390 nm.

In turn, `CC1=C2C=CC(c3ccccc3)=[N+]2[B-](F)(F)n2c1ccc2-c1ccccc1` displayed an absorption maximum (in ClCCl) of 544 nm.

On to `C(S/C=C/c1ccc(/C=C/SC=C2CCCC2)cc1)=C1CCCC1`, for which the absorption maximum (in ClCCl) is listed as 350 nm.

`COc1ccc2c(c1)[nH]c1c3[nH]c4cc(OC)ccc4c3c3nsnc3c21`: the absorption maximum by setting is: (in CN(C)C=O) 436 nm; (in Cc1ccccc1) 425 nm; (in ClCCl) 430 nm.

In turn, `CCCCNc1nc(/C=C/c2ccccc2)[n+]([O-])c2c1CCCC2` returned an absorption maximum (in ClCCl) of 415 nm.

With `O=C(O)CCCCCn1c2ccccc2c(=O)c2cc(S(=O)(=O)O)ccc21`, the absorption maximum (in O) is reported as 409 nm.

For `COc1ccc(-n2nc(C#N)c(N3CCCCC3)n2)cc1`, the absorption maximum (in CC#N) was 340 nm.

`CC1(C)c2ccccc2N(c2ccc(-c3ccc(C#N)cn3)cc2)c2ccccc21` came in with an absorption maximum (in Cc1ccccc1) of 384 nm.

Consider `N#Cc1ccc(/C=C/C=C/C2=NC3C(=O)NC(N)=NC3N2[C@H]2C[C@H](O)[C@@H](CO)O2)cc1` (stereo partly drawn), for which the absorption maximum (in C1COCCO1) turned out to be 395 nm, the absorption maximum (in CC#N) is listed as 387 nm and the absorption maximum (in CO) worked out at 381 nm.

With `c1ccc(-c2nc3ccccc3nc2-c2ccc(-n3c4ccccc4c4ccccc43)cc2)cc1`, where the note is “in Cc1ccccc1”, the absorption maximum amounted to 345 nm.

Regarding `CCCCN1\C(=C/C=C/C=C/C2=[N+](CCCC)c3ccc4cc(Br)ccc4c3C2(C)C)C(C)(C)c2c1ccc1cc(Br)ccc21`, the absorption maximum turned out to be 685 nm (in C1CCOC1); 682 nm (in CC#N); 685 nm (in CC(C)=O); 688 nm (in CCO); 689 nm (in CN(C)C=O); 683 nm (in CO). Besides, the absorption maximum by setting is: (in CS(C)=O) 692 nm; (in ClCCl) 699 nm.

Regarding `Cc1ccc2nc3c(nc2c1)c(-c1ccccc1)nn3C`, the absorption maximum runs as follows: (in C1CCCCC1) 424 nm; (in C1CCOC1) 425 nm; (in CC#N) 423 nm.

Compound `O=c1[nH]nc(-c2ccc(/C=C/c3ccc(-c4n[nH]c(=O)o4)cc3)cc2)o1` came in with an absorption maximum (in CN(C)C=O) of 334 nm.

Take `Fc1ccc(-c2c3ccccc3nc3cc4ccccc4cc23)cc1`: for the setting “in ClCCl”, the absorption maximum was determined as 400 nm.

`Fc1ccc(C2=C(c3ccc(F)cc3)c3cccc4c3c(cc3nc5ccccc5nc34)O2)cc1` returned an absorption maximum (in ClCCl) of 490 nm.

For the compound `Cc1ccc2nc3c4c(c5ccccc5c3nc2c1)OC(=O)CC4c1ccc(C(F)(F)F)cc1` (stereo not drawn), the absorption maximum (in ClC(Cl)Cl) is reported as 411 nm.

In the case of `CC(C)c1cccc(C(C)C)c1N1C(=O)c2cccc3c(Oc4ccccc4)ccc(c23)C1=O`, the absorption maximum (in ClCCl) was determined as 364 nm.

Regarding `CC(C)c1cc(C(C)C)c(B2c3cc(N4c5ccccc5Oc5ccccc54)ccc3N(c3ccccc3)c3ccc(N4c5ccccc5Oc5ccccc54)cc32)c(C(C)C)c1`, the absorption maximum (in C1CCCCC1) is listed as 372.79 nm.

Turning to `C[Si](C)(C)C#Cc1ccc(C#C[Si](C)(C)C)c2ccccc12`, where the note is “in C1CCCCC1”, the absorption maximum turned out to be 347 nm.

On to `c1cc2ccc3cccc4ccc(c1)c2c34`, for which the absorption maximum worked out at 334 nm (in C1CCCCC1); 335 nm (in CC#N); 330 nm (in CCCCCC); 334 nm (in CCO); 335 nm (in CCOC(C)=O); 330 nm (in CO). For the same compound, the absorption maximum is listed as 362 nm (in Cc1ccccc1), 337 nm (in ClC(Cl)Cl) and 333 nm (in ClCCl).

`COc1ccccc1-c1cc2c(o1)=CC1=Cc3cc4oc(-c5ccccc5OC)cc4n3[B-](F)(F)[N+]=21` returned an absorption maximum (in ClC(Cl)Cl) of 671 nm.

For `COc1cc2c(cc1OC)C1=C[C@H](c3ccccc3)C3(C(C(=O)O[C@@H]4C[C@H]5CC[C@@H]4C5)=C(C(=O)O[C@H]4C[C@@H]5CC[C@H]4C5)N1CC2)c1ccccc1-c1ccccc13`, the absorption maximum (in ClCCl) turned out to be 314 nm.

For `Cc1cc(C)c(B(c2ccc(-c3cc4ccc5cccc6ccc(c3)c4c56)cc2)c2c(C)cc(C)cc2C)c(C)c1`, the absorption maximum (in Cc1ccccc1) is 378 nm.

Regarding `c1ccc(-c2nc3c(ccc4[nH]ccc43)o2)cc1`, the absorption maximum amounted to 331 nm (in C1CCCCC1); 333 nm (in C1COCCO1); 320 nm (in CC#N); 325 nm (in CO); 322 nm (in Cc1ccccc1); 321 nm (in O).

As to `COc1ccc(-c2nc(-c3ccccc3OC)[nH]c2-c2ccc(OC)cc2)cc1`, the absorption maximum (in CO) was determined as 299 nm.

As to `c1ccc(-c2nn(-c3ccccc3)c3nc4ccc(N(c5ccccc5)c5ccccc5)cc4cc23)cc1`, the absorption maximum is, setting by setting: (in C1CCCCC1) 452.08 nm; (in C1CCOC1) 450.05 nm; (in CC#N) 447.03 nm; (in CC(C)=O) 448.03 nm; (in CCCCCl) 451.06 nm; (in CCCCOCCCC) 451.06 nm. Also, where the note is “in CN(C)C=O”, the absorption maximum is recorded as 450.05 nm.

Turning to `N#Cc1nc2c(OCc3ccccc3)nc(N)nc2n1Cc1ccccc1`, the absorption maximum is 313 nm (in C1COCCO1), 313 nm (in CC#N), 318 nm (in CO) and 311 nm (in ClCCl).

`CCCCCCCCCCCCN1C(=O)c2c(c3ccc4cc(-c5ccc(-c6ccccc6)cc5)c(OC)cc4c3c3c2ccc2cc(-c4ccc(-c5ccccc5)cc4)c(OC)cc23)C1=O` returned an absorption maximum (in ClCCl) of 437 nm.

On to `O=c1c2cc(F)c(N3CCCCC3)cc2oc2cc(N3CCCCC3)c(F)cc12`, for which the absorption maximum (in CCO) turned out to be 369 nm.

As to `COc1ccc2c(c1)CCC1=C(C#Cc3ccccc3)O[B-](F)(F)[O+]=C12`, the absorption maximum (in ClCCl) is on record as 443 nm.

The compound `COc1cc(OC)c2c(c1)c1c(c3ccc(C(C)(C)C)cc32)=[N+]2C(=Nc3c(-c4cc(OC)c(OC)c(OC)c4)c4c5cc(OC)cc(OC)c5c5cc(C(C)(C)C)ccc5c4n3[B-]2(F)F)C=1c1cc(OC)c(OC)c(OC)c1` displayed an absorption maximum (in Cc1ccccc1) of 791 nm.

(Values after the Deep4Chem optical property database.)
